Experimental findings from US11014905B2, “2,6-disubstituted pyridine derivative” (Sumitomo Dainippon Pharma Co., Ltd., priority 2017, dated 2021) are described below.

Each structure is given as a SMILES string. Some results are limits rather than exact numbers.

Series [1] is described as follows: Test 3-1: metabolic stability test of human liver microsome. The class given is in vitro ADME. The settings on record: human liver microsome 0.1 mg/mL, test compound 0.1 μmol/L, 37° C., 30 minutes. Here is the method:
Test 3-1: Metabolic Stability Test of Human Liver Microsome
(§1) The stability of the present compounds for human liver microsome metabolism was evaluated as mentioned below. The used human liver microsome was obtained from Xenontech. Human liver microsome, NADPH, and each test compound were mixed in 25 mmol/L phosphate buffer solution (pH 7.4) to adjust each concentration as shown below, and the mixture was incubated at 37° C. for 30 minutes. • human liver microsome: 0.1 mg/mL • NAPDH: 3.2 mmol/L • test compound: 0.1 μmol/L
(§2) The residual ratio of the test compound in each sample after the incubation for 30 minutes was measured with a LC-MS, and the metabolic stability of human liver microsome was calculated about each test compound with the following formula. Metabolic stability of human liver microsome(mL/min/mg protein)=−LN(residual ratio)/“reaction time”/“concentration of human liver microsome”

A short description of series [2]: Test 3-2: metabolic stability test of human liver microsome. In kind it is in vitro ADME. The settings on record: human liver microsome 0.5 or 1.0 mg/mL, test compound 0.1 μmol/L, 37° C., 30 minutes. Here is the method: Test 3-2: Metabolic Stability Test of Human Liver Microsome
as §1, with “In order to evaluate the metabolic stability of human liver microsomes more precisely, the stability” for “The stability”, “evaluated with a suitable concentration of human liver microsome,” for “evaluated”, “microsome: 0.5 or 1.0” for “microsome: 0.1”
as §2
Background: Microsomes from liver hold many membrane-bound enzymes, among them those of drug oxidation.

As to `Cc1cccc(C2CCN(CCNC(=O)C3CC4CCC3O4)CC2)n1` (stereo not drawn) [Example 3], the “Metabolic stability of human liver microsome” value (shortened to “Metabolic stability”) in series [1] is less than 0.01 mL/min/mg protein. The same measure, in the same setting: then `Cc1cccc(C2CCN(CCNC(=O)C3CCCOC3)CC2)n1` (stereo not drawn) [Example 15], with less than 0.05 mL/min/mg protein. The same measure, in the same setting: then `O=C(NCCN1CCC(c2cccc(C(F)F)n2)CC1)C1CCOCC1` [Example 34], with less than 0.05 mL/min/mg protein; and `O=C(NCCN1CC=C(c2cccc(C(F)(F)F)n2)CC1)C1CCCOC1` (stereo not drawn) [Example 16, N-{2-[6-(Trifluoromethyl)-3′,6′-dihydro[2,4′-bipyridin]-1′(2′H)-yl]ethyl}-tetrahydro-2H-pyran-3-carboxamide], with less than 0.05 mL/min/mg protein. Same read-out and setting: then `Cc1cccc(C2=CCN(CCNC(=O)C3CCOCC3)CC2)n1` [Example 29, N-[2-(6-Methyl-3′,6′-dihydro[2,4′-bipyridin]-1′(2′H)-yl)ethyl]-tetrahydro-2H-pyran-4-carboxamide], with less than 0.05 mL/min/mg protein; and `O=C(NCCN1CCC(c2cccc(OC(F)(F)F)n2)CC1)C1CCOCC1` [Example 28], with less than 0.05 mL/min/mg protein.

On to `O=C(NCCN1CCC(c2cccc(C(F)(F)F)n2)CC1)C1CCC(F)(F)CC1` [Example 1, 4,4-Difluoro-N-(2-{4-[6-(trifluoromethyl)pyridin-2-yl]piperidin-1-yl}ethyl)cyclohexane-carboxamide], for which the “Metabolic stability” value stood at 0.031 mL/min/mg protein in series [2] and 0.073 mL/min/mg protein in series [1]. Taken in the same sequence, the figures for `Cc1cccc(C2CCN(CCNC(=O)C3CCOCC3)CC2)n1` [Example 8, N-{2-[4-(6-Methylpyridin-2-yl)piperidin-1-yl]ethyl}-tetrahydro-2H-pyran-4-carboxamide] were 0.023 mL/min/mg protein and 0.017 mL/min/mg protein. Regarding `Cc1cccc(C2=CCN(CCNC(=O)[C@H]3C[C@@H]4CC[C@H]3O4)CC2)n1` [Example 13], the “Metabolic stability” value in series [1] is less than 0.05 mL/min/mg protein. On to `COCC(C)(C)C(=O)NCCN1CC=C(c2cccc(C(F)(F)F)n2)CC1` [Example 18], for which, in series [1], the “Metabolic stability” value is recorded as less than 0.05 mL/min/mg protein. Same read-out and setting: to `Cc1cccc(C2=CCN(CCNC(=O)C3CCC(F)(F)CC3)CC2)n1` [Example 14] belongs 0.084 mL/min/mg protein. In the case of `CN(C)c1cccc(C2CCN(CCNC(=O)C3CCOCC3)CC2)n1` [Example 38, N-(2-{4-[6-(Dimethylamino)pyridin-2-yl]piperidin-1-yl}ethyl)-tetrahydro-2H-pyran-4-carboxamide], in series [1], the “Metabolic stability” value is less than 0.05 mL/min/mg protein. The same measure, in the same setting: to `Cc1cccc(C2CCN(CCNC(=O)C(C)(C)C)CC2)n1` [Example 10] belongs 0.015 mL/min/mg protein. Consider `CC(C)(C)C(=O)NCCN1CCC(c2cccc(C(F)(F)F)n2)CC1` [Example 9, 2,2-dimethyl-N-(2-{4-[6-(trifluoromethyl)pyridin-2-yl]piperidin-1-yl}ethyl)propanamide], for which the “Metabolic stability” value stood at 0.016 mL/min/mg protein in series [2] and 0.025 mL/min/mg protein in series [1]. For the compound `O=C(NCCN1CCC(c2cccc(C(F)(F)F)n2)CC1)[C@H]1C[C@@H]2CC[C@H]1O2` [Example 21], the “Metabolic stability” value in series [1] is reported as less than 0.05 mL/min/mg protein. On the same count and under the same terms, to `CC(C)(C)C(=O)NCCN1CC=C(c2cccc(C(F)(F)F)n2)CC1` [Example 31, 2,2-Dimethyl-N-{2-[6-(trifluoromethyl)-3′,6′-dihydro[2,4′-bipyridin]-1′(2′H)-yl]ethyl}propanamide] belongs less than 0.05 mL/min/mg protein; to `COCC(C)(C)C(=O)NCCN1CCC(c2cccc(C(F)(F)F)n2)CC1` [Example 6], less than 0.01 mL/min/mg protein.

`O=C(NCCN1CCC(c2cccc(C(F)(F)F)n2)CC1)C1CCCOC1` (stereo not drawn) [Example 2]: the “Metabolic stability” value in series [1] amounted to 0.069 mL/min/mg protein. On the same count and under the same terms, to `COc1cccc(C2CCN(CCNC(=O)C3CCOCC3)CC2)n1` [Example 33] belongs less than 0.05 mL/min/mg protein; to `COCC(C)(C)C(=O)NCCN1CCC(c2cccc(C)n2)CC1` [Example 5], less than 0.01 mL/min/mg protein. Same read-out and setting: to `Cc1cccc(C2CCN(CCNC(=O)C3CCC(F)(F)CC3)CC2)n1` [Example 4] belongs less than 0.01 mL/min/mg protein.
